Source: PubChem BioAssay AID1963958 (Molecular Pharmacology Branch, DTP, NCI, 2024)
Each block holds one compound with its values, some of them ahead of it.

Tested on: MDA-MB-231 multicell spheroids, viability
Assay: Anticancer human tumor MDA-MB-231 cell line growth inhibition [PI3K];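 further: spheroids exposed to agents for seven days before reading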;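 on viability, T/C: percent of vehicle control luminescence with DMSO treated spheroids as 100%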
Conditions: for IC50: curve of first compound; for viability, T/C: stronger effect = lower value
Outline: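 Viability of mixed-cell spheroids was determined after exposure to pairwise combinations, one partner being inavolisib, alpelisib, duvelisib or copanlisib. Highest tested concentration matched clinical Cmax where known and 10 microM where not, descending in half-log steps.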

[1] = second compound 0.00316 µM, first compound 0.0316 µM
[2] = second compound 0.00316 µM, first compound 0.1 µM
[3] = second compound 0.01 µM, first compound 0.0316 µM
[4] = second compound 0.01 µM, first compound 0.1 µM
[5] = second compound 0.0316 µM, first compound 0.0316 µM
[6] = second compound 0.0316 µM, first compound 0.1 µM
[7] = second compound 0.1 µM, first compound 0.0316 µM
[8] = second compound 0.1 µM, first compound 0.1 µM
[9] = second compound 0.316 µM, first compound 0.0316 µM
[10] = second compound 0.316 µM, first compound 0.1 µM
[11] = second compound 1 µM, first compound 0.0316 µM
[12] = second compound 1 µM, first compound 0.1 µM

- IC50 (second compound 0.00316 µM): > 10000 nM
- IC50 (second compound 0.01 µM): > 10000 nM
- IC50 (second compound 0.0316 µM): > 10000 nM
- IC50 (second compound 0.1 µM): > 10000 nM
- IC50 (second compound 0.316 µM): > 10000 nM
- IC50 (second compound 1 µM): 8260 nM
SMILES: C=CC(=O)N1CCN(c2nc(=O)n(-c3c(C)ccnc3C(C)C)c3nc(-c4c(O)cccc4F)c(F)cc23)C(C)C1 (centres undefined) + CC(Nc1ccc2c(c1)OCCn1cc(N3C(=O)OCC3C(F)F)nc1-2)C(N)=O
- viability, T/C [1]: 97.8%
- viability, T/C [2]: 113%
- viability, T/C (second compound 0.00316 µM, first compound 0.316 µM): 117%
- viability, T/C (second compound 0.00316 µM, first compound 1 µM): 124%
- viability, T/C (second compound 0.00316 µM, first compound 3.16 µM): 126%
- viability, T/C (second compound 0.00316 µM, first compound 10 µM): 111%
- viability, T/C [3]: 97.5%
- viability, T/C [4]: 99.1%
- viability, T/C (second compound 0.01 µM, first compound 0.316 µM): 99.3%
- viability, T/C (second compound 0.01 µM, first compound 1 µM): 119%
- viability, T/C (second compound 0.01 µM, first compound 3.16 µM): 122%
- viability, T/C (second compound 0.01 µM, first compound 10 µM): 106%
- viability, T/C [5]: 80.3%
- viability, T/C [6]: 86.1%
- viability, T/C (second compound 0.0316 µM, first compound 0.316 µM): 88.3%
- viability, T/C (second compound 0.0316 µM, first compound 1 µM): 97.8%
- viability, T/C (second compound 0.0316 µM, first compound 3.16 µM): 99.2%
- viability, T/C (second compound 0.0316 µM, first compound 10 µM): 82.1%
- viability, T/C [7]: 69.8%
- viability, T/C [8]: 71.2%
- viability, T/C (second compound 0.1 µM, first compound 0.316 µM): 81.6%
- viability, T/C (second compound 0.1 µM, first compound 1 µM): 73%
- viability, T/C (second compound 0.1 µM, first compound 3.16 µM): 68.5%
- viability, T/C (second compound 0.1 µM, first compound 10 µM): 59.3%
- viability, T/C [9]: 68.7%
- viability, T/C [10]: 64.6%
- viability, T/C (second compound 0.316 µM, first compound 0.316 µM): 67.8%
- viability, T/C (second compound 0.316 µM, first compound 1 µM): 68.8%
- viability, T/C (second compound 0.316 µM, first compound 3.16 µM): 62.1%
- viability, T/C (second compound 0.316 µM, first compound 10 µM): 48%
- viability, T/C [11]: 59.2%
- viability, T/C [12]: 57.7%
- viability, T/C (second compound 1 µM, first compound 0.316 µM): 62.1%
- viability, T/C (second compound 1 µM, first compound 1 µM): 60.6%
- viability, T/C (second compound 1 µM, first compound 3.16 µM): 58.1%
- viability, T/C (second compound 1 µM, first compound 10 µM): 40.3%

- IC50 (second compound 0.00316 µM): 79.4 nM
- IC50 (second compound 0.01 µM): 37.3 nM
- IC50 (second compound 0.0316 µM): 10.4 nM
- IC50 (second compound 0.1 µM): < 0.316 nM
- IC50 (second compound 0.316 µM): < 0.316 nM
- IC50 (second compound 1 µM): < 0.316 nM
SMILES: CC(=O)c1c(C)c2cnc(Nc3ccc(N4CCNCC4)cn3)nc2n(C2CCCC2)c1=O + COc1c(OCCCN2CCOCC2)ccc2c3n(c(=NC(=O)c4cnc(N)nc4)nc12)CCN3
- viability, T/C (second compound 0.00316 µM, first compound 0.000316 µM): 96.5%
- viability, T/C (second compound 0.00316 µM, first compound 0.001 µM): 94.8%
- viability, T/C (second compound 0.00316 µM, first compound 0.00316 µM): 90.4%
- viability, T/C (second compound 0.00316 µM, first compound 0.01 µM): 85.2%
- viability, T/C [1]: 69.5%
- viability, T/C [2]: 45%
- viability, T/C (second compound 0.01 µM, first compound 0.000316 µM): 80.6%
- viability, T/C (second compound 0.01 µM, first compound 0.001 µM): 79.9%
- viability, T/C (second compound 0.01 µM, first compound 0.00316 µM): 73.7%
- viability, T/C (second compound 0.01 µM, first compound 0.01 µM): 62.5%
- viability, T/C [3]: 53.6%
- viability, T/C [4]: 35.9%
- viability, T/C (second compound 0.0316 µM, first compound 0.000316 µM): 58.4%
- viability, T/C (second compound 0.0316 µM, first compound 0.001 µM): 59.7%
- viability, T/C (second compound 0.0316 µM, first compound 0.00316 µM): 54.2%
- viability, T/C (second compound 0.0316 µM, first compound 0.01 µM): 50.5%
- viability, T/C [5]: 41.3%
- viability, T/C [6]: 26.7%
- viability, T/C (second compound 0.1 µM, first compound 0.000316 µM): 46.9%
- viability, T/C (second compound 0.1 µM, first compound 0.001 µM): 44.9%
- viability, T/C (second compound 0.1 µM, first compound 0.00316 µM): 41.3%
- viability, T/C (second compound 0.1 µM, first compound 0.01 µM): 39.2%
- viability, T/C [7]: 33.1%
- viability, T/C [8]: 21.1%
- viability, T/C (second compound 0.316 µM, first compound 0.000316 µM): 33.4%
- viability, T/C (second compound 0.316 µM, first compound 0.001 µM): 31%
- viability, T/C (second compound 0.316 µM, first compound 0.00316 µM): 27.9%
- viability, T/C (second compound 0.316 µM, first compound 0.01 µM): 27.3%
- viability, T/C [9]: 20.4%
- viability, T/C [10]: 16.4%
- viability, T/C (second compound 1 µM, first compound 0.000316 µM): 25%
- viability, T/C (second compound 1 µM, first compound 0.001 µM): 25%
- viability, T/C (second compound 1 µM, first compound 0.00316 µM): 23.5%
- viability, T/C (second compound 1 µM, first compound 0.01 µM): 24%
- viability, T/C [11]: 21.6%
- viability, T/C [12]: 19.6%
